# Where “and” joins values, the source holds several entries; their conditions need not be identical. Equal values may be shown once. Read-outs that look alike come from different tables or passages of the source.
# Experiments:
# LTA4H [1] = target: T1, LTA4H (Homo sapiens, UniProt P09960); assay: Peptidase assay of LTA4H with pNa and AMC conjugates; assay type: biochemical; parameters: made in house; host or cells: Escherichia coli JM101; conditions: for AC50: activation; for Specific activity of LTA4H with L-Ala-pNa in the presence of inhibitor: substrate L-Ala-pNa; for Specific activity of LTA4H with L-Ala-pNa in the presence of inhibitor / Specific activity of LTA4H with L-Arg-AMC in the presence of inhibitor / Specific activity of LTA4H with L-Arg-pNa in the presence of inhibitor / Specific activity of LTA4H with L-Leu-pNa in the presence of inhibitor / Specific activity of LTA4H with L-Pro-AMC in the presence of inhibitor / Specific activity of LTA4H with L-Pro-pNa in the presence of inhibitor / Specific activity of LTA4H with L-Val-pNa in the presence of inhibitor: mean ± SEM, n = 3; for Specific activity of LTA4H with L-Arg-AMC in the presence of inhibitor: substrate L-Arg-AMC; for Specific activity of LTA4H with L-Arg-pNa in the presence of inhibitor: substrate L-Arg-pNa; for Specific activity of LTA4H with L-Leu-pNa in the presence of inhibitor: substrate L-Leu-pNa; for Specific activity of LTA4H with L-Pro-AMC in the presence of inhibitor: substrate L-Pro-AMC; for Specific activity of LTA4H with L-Pro-pNa in the presence of inhibitor: substrate L-Pro-pNa; for Specific activity of LTA4H with L-Val-pNa in the presence of inhibitor: substrate L-Val-pNa; for fold change of specific activity with L-Arg-AMC / fold change of specific activity with L-Arg-pNa / fold change of specific activity with L-Pro-AMC: vs LTA4H without inhibitor (decrease); for fold change of specific activity with L-Ala-pNa / fold change of specific activity with L-Leu-pNa / fold change of specific activity with L-Val-pNa: vs LTA4H without inhibitor (increase)
# T1 sequence (P09960 1-611): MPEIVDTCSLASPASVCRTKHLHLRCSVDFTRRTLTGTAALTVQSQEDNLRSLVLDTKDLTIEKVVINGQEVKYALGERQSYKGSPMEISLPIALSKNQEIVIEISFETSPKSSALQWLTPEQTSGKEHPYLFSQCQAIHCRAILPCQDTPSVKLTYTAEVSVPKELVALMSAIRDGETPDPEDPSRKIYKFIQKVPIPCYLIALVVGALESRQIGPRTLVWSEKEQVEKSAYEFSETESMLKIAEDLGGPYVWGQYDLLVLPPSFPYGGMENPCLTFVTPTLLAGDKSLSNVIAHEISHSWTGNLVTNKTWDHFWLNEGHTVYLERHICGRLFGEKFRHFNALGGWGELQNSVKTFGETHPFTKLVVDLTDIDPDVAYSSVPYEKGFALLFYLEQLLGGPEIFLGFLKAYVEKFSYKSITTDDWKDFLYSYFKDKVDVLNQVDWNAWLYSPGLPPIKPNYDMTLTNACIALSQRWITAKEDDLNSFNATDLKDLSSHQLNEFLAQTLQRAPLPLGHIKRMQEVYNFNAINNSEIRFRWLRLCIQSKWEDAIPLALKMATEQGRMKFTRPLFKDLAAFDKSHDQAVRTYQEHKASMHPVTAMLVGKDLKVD
# Method: In addition, the aminopeptidase assay was performed with p-nitroanilide (pNa) and 7-amido-4-methylcoumarin (AMC) conjugates containing different N-terminal amino acids. Incubations were carried out with 1 μg LTA4H and 1 mM pNa substrates or 5 µM AMC substrates in 400 μL 10 mM Tris-HCl pH 7.8 containing 100 mM KCl at room temperature for 30 min. The absorbance of released pNa was measured after every 5 min at 405 nm using a TECAN Infinite M200 plate reader. The measurements with AMC derivatives were carried out using a black polystyrene 96-well plate and the fluorescence of released AMC at 360 nm/460 nm (ex/em) was recorded. Specific activities were calculated based on the standard curves of free pNA and AMC (Figure S10). The activation (AC50) or inhibition constants (IC50) were determined using the non-linear regression approach in the GraphPad Prism 9 program.
# LTA4H [2] = target: T1, LTA4H; assay: Isothermal titration calorimetry with LTA4H; assay type: binding; parameters: made in house; host or cells: Escherichia coli JM101; conditions: 25 mM Tris pH 7.8, 3% DMSO, 25 °C
# Method: ITC was performed with an iTC200 calorimeter (MicroCal Inc., Northampton, MA, USA) equipped with a […] sample cell. Measurements were performed in 25 mM Tris-HCl pH 7.8 supplemented with 3% DMSO at 25 °C. […] After the ITC system was equilibrated, the initial injection of an inhibitor was performed in 0.5–1.0 µL followed by 15 injections in 2.5 µL. The time between each injection was 1.5–3.0 min to ensure the complete equilibration of the system. Collected data were analyzed by MicroCal PEAK-ITC Analysis Software. Control experiments were performed with identical conditions using only inhibitor, protein or buffer with 3% DMSO.
# 5-LOX = target: T2, 5-LOX (Homo sapiens, UniProt P09917); assay: Inhibition assay with recombinant 5-LOX; assay type: biochemical; parameters: made in house; host or cells: Escherichia coli BL21; conditions: 20 µM AA, 2 mM CaCl2
# T2 sequence (P09917 1-674): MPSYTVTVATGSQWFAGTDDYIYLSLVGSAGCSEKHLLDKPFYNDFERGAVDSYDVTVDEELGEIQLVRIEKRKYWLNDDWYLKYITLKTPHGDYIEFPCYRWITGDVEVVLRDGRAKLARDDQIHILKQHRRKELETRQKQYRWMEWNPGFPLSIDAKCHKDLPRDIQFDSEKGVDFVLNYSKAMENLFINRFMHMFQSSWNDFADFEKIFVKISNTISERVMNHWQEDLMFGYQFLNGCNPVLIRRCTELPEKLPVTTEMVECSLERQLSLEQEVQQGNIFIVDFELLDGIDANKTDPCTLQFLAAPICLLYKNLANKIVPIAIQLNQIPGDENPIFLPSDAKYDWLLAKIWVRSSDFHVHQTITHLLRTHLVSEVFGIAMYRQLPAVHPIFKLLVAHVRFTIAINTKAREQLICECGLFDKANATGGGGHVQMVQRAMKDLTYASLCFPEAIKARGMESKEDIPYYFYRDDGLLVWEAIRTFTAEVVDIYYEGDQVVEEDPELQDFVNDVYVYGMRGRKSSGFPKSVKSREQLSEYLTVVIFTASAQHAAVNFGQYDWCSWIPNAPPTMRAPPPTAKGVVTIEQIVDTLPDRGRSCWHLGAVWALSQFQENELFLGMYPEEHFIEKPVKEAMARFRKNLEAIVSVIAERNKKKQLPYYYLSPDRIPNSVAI
# Method: Escherichia coli BL21 cells were transformed with the pT3-5-LO vector and human recombinant 5-LOX was expressed overnight at 30 °C as previously described. […] The supernatant was loaded on an ATP-agarose column and washed with 50 mM phosphate buffer (PB) containing 1 mM EDTA. Protein fractions were eluted with PB supplemented with 1 mM EDTA and 20 mM ATP. Aliquots of semi-purified 5-LOX were diluted with PBS containing 1 mM EDTA and used immediately in incubations.
# Aliquots of 5-LOX (0.5 μg) were pre-incubated with test compounds or a vehicle (0.1%, v/v) for 10 min at 4 °C. […] The reaction was stopped after 10 min by addition of 1 vol of ice-cold methanol. Formed metabolites, i.e., LTB4, trans- and epi-trans-LTB4, and 5S-HETE, were analyzed with reverse-phase HPLC using a C18 RP Radial PAK column (Waters) as described previously.
# [3] = 5 µM L-Arg-AMC, read-out: IC50, peptidase activity with L-Arg-AMC
# [4] = 5 µM L-Pro-AMC, read-out: IC50, peptidase activity with L-Pro-AMC
# [5] = 1 mM L-Arg-pNa, read-out: IC50, peptidase activity with L-Arg-pNa
# [6] = 1 mM L-Lys-pNa, read-out: IC50, peptidase activity with L-Lys-pNa
# [7] = 1 mM L-Ala-pNa, read-out: AC50, peptidase activity with L-Ala-pNa
# [8] = 1 mM L-Leu-pNa, read-out: AC50, peptidase activity with L-Leu-pNa
# [9] = 1 mM L-Val-pNa, read-out: AC50, peptidase activity with L-Val-pNa
# [10] = mean ± SEM, n = 4, read-out: dissociation constant (Kd) by ITC
# [11] = read-out: dissociation constant (Kd) by ITC
# [12] = read-out: IC50 with recombinant human 5-LOX
Structure (SMILES),IC50 (LTA4H [1]; [3]) [nM],IC50 (LTA4H [1]; [4]) [nM],IC50 (LTA4H [1]; [5]) [nM],IC50 (LTA4H [1]; [6]) [nM],AC50 (LTA4H [1]; [7]) [nM],AC50 (LTA4H [1]; [8]) [nM],AC50 (LTA4H [1]; [9]) [nM],Specific activity of LTA4H with L-Ala-pNa in the presence of inhibitor (LTA4H [1]) [µmol/µg/min],Specific activity of LTA4H with L-Arg-AMC in the presence of inhibitor (LTA4H [1]) [µmol/µg/min],Specific activity of LTA4H with L-Arg-pNa in the presence of inhibitor (LTA4H [1]) [µmol/µg/min],Specific activity of LTA4H with L-Leu-pNa in the presence of inhibitor (LTA4H [1]) [µmol/µg/min],Specific activity of LTA4H with L-Pro-AMC in the presence of inhibitor (LTA4H [1]) [µmol/µg/min],Specific activity of LTA4H with L-Pro-pNa in the presence of inhibitor (LTA4H [1]) [µmol/µg/min],Specific activity of LTA4H with L-Val-pNa in the presence of inhibitor (LTA4H [1]) [µmol/µg/min],Kd (LTA4H [2]; [10]) [nM],Kd (LTA4H [2]; [11]) [nM],IC50 (5-LOX; [12]),fold change of specific activity with L-Arg-AMC (LTA4H [1]; in parentheses) [x],fold change of specific activity with L-Arg-pNa (LTA4H [1]; in parentheses) [x],fold change of specific activity with L-Pro-AMC (LTA4H [1]; in parentheses) [x],further results
"Nc1nc(-c2ccc(Cc3ccccc3)cc2)cs1 [ARM1, 4-(4-benzylphenyl) thiazol-2-amine, reference compound]",330 ± 90,300 ± 70,360 ± 60,1060 ± 240,180 ± 40,480 ± 50,230 ± 20,79.6 ± 7.6,10.1 ± 0.1,0.20 ± 0.03,46.3 ± 1.7,16.0 ± 0.2,2.65 ± 0.12,24.9 ± 0.8,248 ± 53.2,250,6700 nM and ~6000 nM,–,–,–,–
"Nc1nc(-c2ccc(Cc3ccccc3)cc2)co1 [TTO, 4-(4-benzylphenyl) oxazol-2-amine]",440 ± 140,310 ± 50,460 ± 50,890 ± 710,280 ± 40,560 ± 60,210 ± 20,93.0 ± 1.7,9.9 ± 0.1,0.2 ± 0.1,46.9 ± 1.7,15.8 ± 0.2,2.3 ± 0.2,24.4 ± 0.4,326 ± 29.4,330,33600 nM and > 30000 nM,3,89,2,"fold change of specific activity with L-Pro-pNa (LTA4H [1]; in parentheses, vs LTA4H without inhibitor): 1.3 x; fold change of specific activity with L-Ala-pNa (LTA4H [1]; in parentheses): 9 x; fold change of specific activity with L-Leu-pNa (LTA4H [1]; in parentheses): 12 x; fold change of specific activity with L-Val-pNa (LTA4H [1]; in parentheses): 30 x"
"Nc1nc(-c2ccc(Cc3ccccc3)cc2)c[se]1 [TTSe, 4-(4-benzylphenyl) selenazol-2-amine]",–,–,–,–,–,–,–,88.0 ± 4.6,10.1 ± 0.1,0.20 ± 0.07,37.6 ± 1.1,15.7 ± 0.2,2.8 ± 0.1,24.6 ± 0.5,–,–,–,3,94,2,"AC50 (LTA4H [1]; AC50, peptidase activity with L-Ala-pNa, 1 mM L-Ala-pNa): 210 ± 30 nM; AC50 (LTA4H [1]; AC50, peptidase activity with L-Leu-pNa, 1 mM L-Leu-pNa): 520 ± 50 nM; AC50 (LTA4H [1]; AC50, peptidase activity with L-Val-pNa, 1 mM L-Val-pNa): 270 ± 30 nM; IC50 (LTA4H [1]; IC50, peptidase activity with L-Arg-AMC, 5 µM L-Arg-AMC): 380 ± 90 nM; IC50 (LTA4H [1]; IC50, peptidase activity with L-Arg-pNa, 1 mM L-Arg-pNa): 490 ± 100 nM; IC50 (LTA4H [1]; IC50, peptidase activity with L-Lys-pNa, 1 mM L-Lys-pNa): 1010 ± 360 nM; IC50 (LTA4H [1]; IC50, peptidase activity with L-Pro-AMC, 5 µM L-Pro-AMC): 250 ± 20 nM; fold change of specific activity with L-Ala-pNa (LTA4H [1]; in parentheses): 9 x; fold change of specific activity with L-Leu-pNa (LTA4H [1]; in parentheses): 10 x; fold change of specific activity with L-Val-pNa (LTA4H [1]; in parentheses): 30 x; Kd (LTA4H [2]; dissociation constant (Kd) by ITC): 370 nM; Kd (LTA4H [2]; dissociation constant (Kd) by ITC, mean ± SEM, n = 4): 367 ± 10.7 nM; IC50 (5-LOX; IC50 with recombinant human 5-LOX): 19900 nM and ~20000 nM"

# Reference: PMC10145651, “Modulation of the 5-Lipoxygenase Pathway by Chalcogen-Containing Inhibitors of Leukotriene A4 Hydrolase” (International Journal of Molecular Sciences, 2023)
